These results are taken from patent US9670210B2, “Cyclopropylamines as LSD1 inhibitors” (Incyte Corporation, priority 2014, dated 2017).

This test deals with LSD-1 enzyme (Homo sapiens (Human), UniProt O60341).
Method: LSD1 Histone Demethylase Biochemical Assay
LANCE LSD1/KDM1A demethylase assay-10 μL of 1 nM LSD-1 enzyme (ENZO BML-SE544-0050) in the assay buffer (50 mM Tris, pH 7.5, 0.01% Tween-20, 25 mM NaCl, 5 mM DTT) were preincubated for 1 hour at 25° C. with 0.8 μL compound/DMSO dotted in black 384 well polystyrene plates. […] After stopping the reactions plates were incubated for 30 minutes and read on a PHERAstar FS plate reader (BMG Labtech).
In general, IC50 refers to the concentration that inhibits the measured activity by half. Low values mean greater potency, high ones weaker potency. `COCC1(CN[C@@H]2C[C@H]2c2ccc(F)cc2)CCN(CC2(C(=O)O)CCC2)CC1` [Example 63, 1-{[4-({[(1R,2S)-2-(4-fluorophenyl)cyclopropyl]amino}methyl)-4-(methoxymethyl)piperidin-1-yl]methyl}cyclobutanecarboxylic acid]: the IC50 is below 0.1 µM. As for `COCC1(CN[C@@H]2C[C@H]2c2ccccc2F)CCN(CC2(C(=O)O)CCC2)CC1` [Example 64, 1-{[4-({[(1R,2S)-2-(2-fluorophenyl)cyclopropyl]amino}methyl)-4-(methoxymethyl)piperidin-1-yl]methyl}cyclobutanecarboxylic acid], the figure is below 0.1 µM; as for `COCC1(CN[C@@H]2C[C@H]2c2ccc(F)c(F)c2)CCN(CC2(C(=O)O)CCC2)CC1` [Example 65, 1-{[4-({[(1R,2S)-2-(3,4-difluorophenyl)cyclopropyl]amino}methyl)-4-(methoxymethyl)piperidin-1-yl]methyl}cyclobutanecarboxylic acid], below 0.1 µM. On to `COCC1(CNC2CC2c2ccccc2OC)CCN(CC2(C(=O)O)CCC2)CC1` (centres unmarked) [Example 66, 1-{[4-(methoxymethyl)-4-({[2-(2-methoxyphenyl)cyclopropyl]amino}methyl)piperidin-1-yl]methyl}cyclobutanecarboxylic acid], for which the IC50 is below 0.1 µM.

`COCC1(CNC2CC2c2ccc(OC)cc2)CCN(CC2(C(=O)O)CCC2)CC1` (centres unmarked) [Example 67, 1-{[4-(methoxymethyl)-4-({[2-(4-methoxyphenyl)cyclopropyl]amino}methyl)piperidin-1-yl]methyl}cyclobutanecarboxylic acid] yielded an IC50 below 0.1 µM. As for `COCC1(C(C)N[C@@H]2C[C@H]2c2ccccc2)CCN(CC2(C(=O)O)CCC2)CC1` (stereo partly drawn) [Example 68, 1-{[4-(methoxymethyl)-4-(1-{[(1R,2S)-2-phenylcyclopropyl]amino}ethyl)piperidin-1-yl]methyl}cyclobutanecarboxylic acid], the figure is below 0.1 µM; as for `COc1ccc(CC2(CN[C@@H]3C[C@H]3c3ccccc3)CCN(CC3(C(=O)O)CC3)CC2)cn1` [Example 69, 1-{[4-[(6-methoxypyridin-3-yl)methyl]-4-({[(1R,2S)-2-phenylcyclopropyl]amino}methyl)piperidin-1-yl]methyl}cyclopropanecarboxylic acid], below 0.1 µM. In turn, `CCOCC1(CN[C@@H]2C[C@H]2c2ccccc2)CCN(CC2(C(=O)O)CC2)CC1` [Example 70, 1-{[4-(ethoxymethyl)-4-({[(1R,2S)-2-phenylcyclopropyl]amino}methyl)piperidin-1-yl]methyl}cyclopropanecarboxylic acid] yielded a concentration for half-maximal inhibition (IC50) below 0.1 µM. Next, `CCOCC1(CN[C@@H]2C[C@H]2c2ccccc2)CCN(CC2(C(=O)O)CCC2)CC1` [Example 71, 1-{[4-(ethoxymethyl)-4-({[(1R,2S)-2-phenylcyclopropyl]amino}methyl)piperidin-1-yl]methyl}cyclobutanecarboxylic acid]: below 0.1 µM; `O=C(O)C1(CN2CCC(CN[C@@H]3C[C@H]3c3ccccc3)(COCc3ccccc3)CC2)CC1` [Example 72, 1-{[4-[(benzyloxy)methyl]-4-({[(1R,2S)-2-phenylcyclopropyl]amino}methyl)piperidin-1-yl]methyl}cyclopropanecarboxylic acid]: below 0.1 µM; `O=C(O)C1(CN2CCC(CN[C@@H]3C[C@H]3c3ccccc3)(COCc3ccccc3)CC2)CCC1` [Example 73, 1-{[4-[(benzyloxy)methyl]-4-({[(1R,2S)-2-phenylcyclopropyl]amino}methyl)piperidin-1-yl]methyl}cyclobutanecarboxylic acid]: below 0.1 µM. As for `N#Cc1ccc(CC2(CN[C@@H]3C[C@H]3c3ccccc3)CCN(CC3(C(=O)O)CC3)CC2)c(F)c1` [Example 74, 1-{[4-(4-cyano-2-fluorobenzyl)-4-({[(1R,2S)-2-phenylcyclopropyl]amino}methyl)piperidin-1-yl]methyl}cyclopropanecarboxylic acid], the figure is below 0.1 µM. Next, `O=C(O)C1(CN2CCC(CN[C@@H]3C[C@H]3c3ccccc3)(COc3ccccc3F)CC2)CC1` [Example 75, 1-{[4-[(2-fluorophenoxy)methyl]-4-({[(1R,2S)-2-phenylcyclopropyl]amino}methyl)piperidin-1-yl]methyl}cyclopropanecarboxylic acid]: below 0.1 µM; `O=C(O)C1(CN2CCC(CN[C@@H]3C[C@H]3c3ccccc3)(COc3ccccc3F)CC2)CCC1` [Example 76, 1-{[4-[(2-fluorophenoxy)methyl]-4-({[(1R,2S)-2-phenylcyclopropyl]amino}methyl)piperidin-1-yl]methyl}cyclobutanecarboxylic acid]: below 0.1 µM; `O=C(O)C1(CN2CCC(CN[C@@H]3C[C@H]3c3ccccc3)(COc3cccc(F)c3)CC2)CC1` [Example 77, 1-{[4-[(3-fluorophenoxy)methyl]-4-({[(1R,2S)-2-phenylcyclopropyl]amino}methyl)piperidin-1-yl]methyl}cyclopropanecarboxylic acid]: below 0.1 µM. `O=C(O)C1(CN2CCC(CN[C@@H]3C[C@H]3c3ccccc3)(COc3cccc(F)c3)CC2)CCC1` [Example 78, 1-{[4-[(3-fluorophenoxy)methyl]-4-({[(1R,2S)-2-phenylcyclopropyl]amino}methyl)piperidin-1-yl]methyl}cyclobutanecarboxylic acid] yielded an IC50 below 0.1 µM. As for `N#Cc1ccccc1OCC1(CN[C@@H]2C[C@H]2c2ccccc2)CCN(CC2(C(=O)O)CC2)CC1` [Example 79, 1-{[4-[(2-cyanophenoxy)methyl]-4-({[(1R,2S)-2-phenylcyclopropyl]amino}methyl)piperidin-1-yl]methyl}cyclopropanecarboxylic acid], the figure is below 0.1 µM. Next, `N#Cc1cccc(OCC2(CN[C@@H]3C[C@H]3c3ccccc3)CCN(CC3(C(=O)O)CC3)CC2)c1` [Example 80, 1-{[4-[(3-cyanophenoxy)methyl]-4-({[(1R,2S)-2-phenylcyclopropyl]amino}methyl)piperidin-1-yl]methyl}cyclopropanecarboxylic acid]: below 0.1 µM; `N#Cc1ccc(OCC2(CN[C@@H]3C[C@H]3c3ccccc3)CCN(CC3(C(=O)O)CC3)CC2)cc1` [Example 81, 1-{[4-[(4-cyanophenoxy)methyl]-4-({[(1R,2S)-2-phenylcyclopropyl]amino}methyl)piperidin-1-yl]methyl}cyclopropanecarboxylic acid]: below 0.1 µM; `N#Cc1ccc(OCC2(CN[C@@H]3C[C@H]3c3ccccc3)CCN(CC3(C(=O)O)CC3)CC2)c(F)c1` [Example 82, 1-{[4-[(4-cyano-2-fluorophenoxy)methyl]-4-({[(1R,2S)-2-phenylcyclopropyl]amino}methyl)piperidin-1-yl]methyl}cyclopropanecarboxylic acid]: below 0.1 µM. Next, `N#Cc1ccccc1OCC1(CN[C@@H]2C[C@H]2c2ccccc2)CCN(CC2(C(=O)O)CCC2)CC1` [Example 83, 1-{[4-[(2-cyanophenoxy)methyl]-4-({[(1R,2S)-2-phenylcyclopropyl]amino}methyl)piperidin-1-yl]methyl}cyclobutanecarboxylic acid]: below 0.1 µM; `N#Cc1cccc(OCC2(CN[C@@H]3C[C@H]3c3ccccc3)CCN(CC3(C(=O)O)CCC3)CC2)c1` [Example 84, 1-{[4-[(3-cyanophenoxy)methyl]-4-({[(1R,2S)-2-phenylcyclopropyl]amino}methyl)piperidin-1-yl]methyl}cyclobutanecarboxylic acid]: below 0.1 µM. As for `N#Cc1ccc(OCC2(CN[C@@H]3C[C@H]3c3ccccc3)CCN(CC3(C(=O)O)CCC3)CC2)cc1` [Example 85, 1-{[4-[(4-cyanophenoxy)methyl]-4-({[(1R,2S)-2-phenylcyclopropyl]amino}methyl)piperidin-1-yl]methyl}cyclobutanecarboxylic acid], the IC50 was below 0.1 µM. Next, `N#Cc1ccc(OCC2(CN[C@@H]3C[C@H]3c3ccccc3)CCN(CC3(C(=O)O)CCC3)CC2)c(F)c1` [Example 86, 1-{[4-[(4-cyano-2-fluorophenoxy)methyl]-4-({[(1R,2S)-2-phenylcyclopropyl]amino}methyl)piperidin-1-yl]methyl}cyclobutanecarboxylic acid]: below 0.1 µM. As for `O=C(O)C1(CN2CCC(CN[C@@H]3C[C@H]3c3ccccc3)(COc3ccc(F)cn3)CC2)CC1` [Example 87, 1-{[4-{[(5-fluoropyridin-2-yl)oxy]methyl}-4-({[(1R,2S)-2-phenylcyclopropyl]amino}methyl)piperidin-1-yl]methyl}cyclopropanecarboxylic acid], the figure is below 0.1 µM; as for `O=C(O)C1(CN2CCC(CN[C@@H]3C[C@H]3c3ccccc3)(COc3ncc(F)cn3)CC2)CC1` [Example 88, 1-{[4-{[(5-fluoropyrimidin-2-yl)oxy]methyl}-4-({[(1R,2S)-2-phenylcyclopropyl]amino}methyl)piperidin-1-yl]methyl}cyclopropanecarboxylic acid], below 0.1 µM; as for `O=C(O)C1(CN2CCC(CN[C@@H]3C[C@H]3c3ccccc3)(COc3ncccc3F)CC2)CC1` [Example 89, 1-{[4-{[(3-fluoropyridin-2-yl)oxy]methyl}-4-({[(1R,2S)-2-phenylcyclopropyl]amino}methyl)piperidin-1-yl]methyl}cyclopropanecarboxylic acid], below 0.1 µM.

`CNC(=O)c1ccc(OCC2(CN[C@@H]3C[C@H]3c3ccccc3)CCN(CC3(C(=O)O)CC3)CC2)cn1` [Example 90, 1-{[4-[({6-[(methylamino)carbonyl]pyridin-3-yl}oxy)methyl]-4-({[(1R,2S)-2-phenylcyclopropyl]amino}methyl)piperidin-1-yl]methyl}cyclopropanecarboxylic acid] showed an IC50 below 0.1 µM. Next, `CNC(=O)c1cccc(OCC2(CN[C@@H]3C[C@H]3c3ccccc3)CCN(CC3(C(=O)O)CC3)CC2)n1` [Example 91, 1-{[4-[({6-[(methylamino)carbonyl]pyridin-2-yl}oxy)methyl]-4-({[(1R,2S)-2-phenylcyclopropyl]amino}methyl)piperidin-1-yl]methyl}cyclopropanecarboxylic acid]: below 0.1 µM.
